Source: PubChem BioAssay AID2060499 (Molecular Pharmacology Branch, DTP, NCI, 2025)

System: 777334-354-R2-J4-PDC tumor spheroids with HUVEC/MSC, viability
Assay: Anticancer human tumor 777334-354-R2-J4-PDC patient-derived pancreatic adenocarcinoma cell line growth inhibition [GQUAD]
Details: for IC50: curve of first compound; for viability, T/C: stronger effect = lower value
How it was run: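 Viability of tumor cells grown as complex spheroids with endothelial and stromal cells, exposed to drug combinations. Top concentration at or near clinical Cmax (else 10 microM), diluted in half-log increments.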

[1] = second compound 0.0316 µM, first compound 0.0316 µM
[2] = second compound 0.0316 µM, first compound 0.316 µM
[3] = second compound 0.1 µM, first compound 0.0316 µM
[4] = second compound 0.1 µM, first compound 0.316 µM
[5] = second compound 0.316 µM, first compound 0.0316 µM
[6] = second compound 0.316 µM, first compound 0.316 µM
[7] = second compound 1 µM, first compound 0.0316 µM
[8] = second compound 1 µM, first compound 0.316 µM
[9] = second compound 3.16 µM, first compound 0.0316 µM
[10] = second compound 3.16 µM, first compound 0.316 µM
[11] = second compound 10 µM, first compound 0.0316 µM
[12] = second compound 10 µM, first compound 0.316 µM
[13] = second compound 0.0316 µM, first compound 0.1 µM
[14] = second compound 0.0316 µM, first compound 1 µM
[15] = second compound 0.0316 µM, first compound 3.16 µM
[16] = second compound 0.0316 µM, first compound 10 µM
[17] = second compound 0.1 µM, first compound 0.1 µM
[18] = second compound 0.1 µM, first compound 1 µM
[19] = second compound 0.1 µM, first compound 3.16 µM
[20] = second compound 0.1 µM, first compound 10 µM
[21] = second compound 0.316 µM, first compound 0.1 µM
[22] = second compound 0.316 µM, first compound 1 µM
[23] = second compound 0.316 µM, first compound 3.16 µM
[24] = second compound 0.316 µM, first compound 10 µM
[25] = second compound 1 µM, first compound 0.1 µM
[26] = second compound 1 µM, first compound 1 µM
[27] = second compound 1 µM, first compound 3.16 µM
[28] = second compound 1 µM, first compound 10 µM
[29] = second compound 3.16 µM, first compound 0.1 µM
[30] = second compound 3.16 µM, first compound 1 µM
[31] = second compound 3.16 µM, first compound 3.16 µM
[32] = second compound 3.16 µM, first compound 10 µM
[33] = second compound 10 µM, first compound 0.1 µM
[34] = second compound 10 µM, first compound 1 µM
[35] = second compound 10 µM, first compound 3.16 µM
[36] = second compound 10 µM, first compound 10 µM
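Also: spheroids exposed to compounds for 7 days before readout.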

CC[C@@]1(O)C(=O)OCc2c1cc1n(c2=O)Cc2cc3c(CN(C)C)c(O)ccc3nc2-1 + CN(C)c1ccc(Nc2c3ccc(NC(=O)CCN4CCCC4)cc3nc3cc(NC(=O)CCN4CCCC4)ccc23)cc1
IC50 (second compound 0.0316 µM): 130 nM | IC50 (second compound 0.1 µM): 157 nM | IC50 (second compound 0.316 µM): 153 nM | IC50 (second compound 1 µM): 163 nM | IC50 (second compound 3.16 µM): 106 nM | IC50 (second compound 10 µM): 140 nM | viability, T/C (second compound 0.0316 µM, first compound 0.000999 µM): 105% | viability, T/C (second compound 0.0316 µM, first compound 0.00316 µM): 110% | viability, T/C (second compound 0.0316 µM, first compound 0.00999 µM): 109% | viability, T/C [1]: 84.5% | viability, T/C (second compound 0.0316 µM, first compound 0.0999 µM): 56% | viability, T/C [2]: 34.7% | viability, T/C (second compound 0.1 µM, first compound 0.000999 µM): 106% | viability, T/C (second compound 0.1 µM, first compound 0.00316 µM): 89.2% | viability, T/C (second compound 0.1 µM, first compound 0.00999 µM): 103% | viability, T/C [3]: 88.8% | viability, T/C (second compound 0.1 µM, first compound 0.0999 µM): 57.7% | viability, T/C [4]: 38.5% | viability, T/C (second compound 0.316 µM, first compound 0.000999 µM): 77.1% | viability, T/C (second compound 0.316 µM, first compound 0.00316 µM): 90.2% | viability, T/C (second compound 0.316 µM, first compound 0.00999 µM): 95.1% | viability, T/C [5]: 79.1% | viability, T/C (second compound 0.316 µM, first compound 0.0999 µM): 60.4% | viability, T/C [6]: 33.2% | viability, T/C (second compound 1 µM, first compound 0.000999 µM): 98.8% | viability, T/C (second compound 1 µM, first compound 0.00316 µM): 95.9% | viability, T/C (second compound 1 µM, first compound 0.00999 µM): 100% | viability, T/C [7]: 88.1% | viability, T/C (second compound 1 µM, first compound 0.0999 µM): 57.8% | viability, T/C [8]: 39.6% | viability, T/C (second compound 3.16 µM, first compound 0.000999 µM): 83.7% | viability, T/C (second compound 3.16 µM, first compound 0.00316 µM): 94.2% | viability, T/C (second compound 3.16 µM, first compound 0.00999 µM): 98.8% | viability, T/C [9]: 83.6% | viability, T/C (second compound 3.16 µM, first compound 0.0999 µM): 51.4% | viability, T/C [10]: 31.9% | viability, T/C (second compound 10 µM, first compound 0.000999 µM): 79.3% | viability, T/C (second compound 10 µM, first compound 0.00316 µM): 89.9% | viability, T/C (second compound 10 µM, first compound 0.00999 µM): 67.4% | viability, T/C [11]: 73.4% | viability, T/C (second compound 10 µM, first compound 0.0999 µM): 55.3% | viability, T/C [12]: 35.1%

COc1cc(C2c3cc4c(cc3C(OC3OC5COC(C)OC5C(O)C3O)C3COC(=O)C23)OCO4)cc(OC)c1O (stereo not drawn) + CN(C)c1ccc(Nc2c3ccc(NC(=O)CCN4CCCC4)cc3nc3cc(NC(=O)CCN4CCCC4)ccc23)cc1
IC50 (second compound 0.0316 µM): 4940 nM | IC50 (second compound 0.1 µM): 4350 nM | IC50 (second compound 0.316 µM): 4030 nM | IC50 (second compound 1 µM): 2930 nM | IC50 (second compound 3.16 µM): 4710 nM | IC50 (second compound 10 µM): 3610 nM | viability, T/C [1]: 98.6% | viability, T/C [13]: 87.8% | viability, T/C [2]: 88.9% | viability, T/C [14]: 70.4% | viability, T/C [15]: 57.8% | viability, T/C [16]: 38.5% | viability, T/C [3]: 99.6% | viability, T/C [17]: 95.2% | viability, T/C [4]: 87.5% | viability, T/C [18]: 79% | viability, T/C [19]: 54% | viability, T/C [20]: 36% | viability, T/C [5]: 93.5% | viability, T/C [21]: 78.9% | viability, T/C [6]: 85.5% | viability, T/C [22]: 70.3% | viability, T/C [23]: 53.6% | viability, T/C [24]: 34.1% | viability, T/C [7]: 90.5% | viability, T/C [25]: 82% | viability, T/C [8]: 87.4% | viability, T/C [26]: 74.3% | viability, T/C [27]: 48.5% | viability, T/C [28]: 37.4% | viability, T/C [9]: 88% | viability, T/C [29]: 78.5% | viability, T/C [10]: 77.8% | viability, T/C [30]: 66.3% | viability, T/C [31]: 60.4% | viability, T/C [32]: 36.6% | viability, T/C [11]: 79% | viability, T/C [33]: 84.8% | viability, T/C [12]: 75.1% | viability, T/C [34]: 61% | viability, T/C [35]: 55% | viability, T/C [36]: 33.6%

COc1cccc2c1C(=O)c1c(O)c3c(c(O)c1C2=O)CC(O)(C(=O)CO)CC3OC1CC(N)C(O)C(C)O1 (stereo not drawn) + CN(C)c1ccc(Nc2c3ccc(NC(=O)CCN4CCCC4)cc3nc3cc(NC(=O)CCN4CCCC4)ccc23)cc1
IC50 (second compound 0.0316 µM): 909 nM | IC50 (second compound 0.1 µM): 841 nM | IC50 (second compound 0.316 µM): 783 nM | IC50 (second compound 1 µM): 679 nM | IC50 (second compound 3.16 µM): 633 nM | IC50 (second compound 10 µM): 858 nM | viability, T/C [1]: 109% | viability, T/C [13]: 84.4% | viability, T/C [2]: 74.2% | viability, T/C [14]: 49.3% | viability, T/C [15]: 25.2% | viability, T/C [16]: 9.52% | viability, T/C [3]: 100% | viability, T/C [17]: 85.3% | viability, T/C [4]: 71.2% | viability, T/C [18]: 47.1% | viability, T/C [19]: 24.5% | viability, T/C [20]: 13.8% | viability, T/C [5]: 107% | viability, T/C [21]: 78.9% | viability, T/C [6]: 70.1% | viability, T/C [22]: 47.9% | viability, T/C [23]: 23.6% | viability, T/C [24]: 14% | viability, T/C [7]: 89.7% | viability, T/C [25]: 74.7% | viability, T/C [8]: 66.5% | viability, T/C [26]: 42.9% | viability, T/C [27]: 23.2% | viability, T/C [28]: 12.2% | viability, T/C [9]: 83.7% | viability, T/C [29]: 76.5% | viability, T/C [10]: 55% | viability, T/C [30]: 48.4% | viability, T/C [31]: 25% | viability, T/C [32]: 15.2% | viability, T/C [11]: 77% | viability, T/C [33]: 78.2% | viability, T/C [12]: 64% | viability, T/C [34]: 50% | viability, T/C [35]: 22.3% | viability, T/C [36]: 14%

Nc1ccn(C2OC(CO)C(O)C2(F)F)c(=O)n1 (stereo not drawn) + CN(C)c1ccc(Nc2c3ccc(NC(=O)CCN4CCCC4)cc3nc3cc(NC(=O)CCN4CCCC4)ccc23)cc1
IC50 (second compound 0.0316 µM): 557 nM | IC50 (second compound 0.1 µM): 402 nM | IC50 (second compound 0.316 µM): 326 nM | IC50 (second compound 1 µM): 171 nM | IC50 (second compound 3.16 µM): 150 nM | IC50 (second compound 10 µM): 77.9 nM | viability, T/C [1]: 80.7% | viability, T/C [13]: 67.8% | viability, T/C [2]: 54.4% | viability, T/C [14]: 44.3% | viability, T/C [15]: 37.5% | viability, T/C [16]: 27.3% | viability, T/C [3]: 80.5% | viability, T/C [17]: 71.5% | viability, T/C [4]: 51.5% | viability, T/C [18]: 39.1% | viability, T/C [19]: 32.6% | viability, T/C [20]: 27.4% | viability, T/C [5]: 68.5% | viability, T/C [21]: 65.8% | viability, T/C [6]: 45.4% | viability, T/C [22]: 40.5% | viability, T/C [23]: 33.2% | viability, T/C [24]: 23.4% | viability, T/C [7]: 76.2% | viability, T/C [25]: 55.3% | viability, T/C [8]: 42.2% | viability, T/C [26]: 34.4% | viability, T/C [27]: 30.1% | viability, T/C [28]: 22.9% | viability, T/C [9]: 67.4% | viability, T/C [29]: 51.8% | viability, T/C [10]: 43.5% | viability, T/C [30]: 33.7% | viability, T/C [31]: 32.4% | viability, T/C [32]: 22.2% | viability, T/C [11]: 59.5% | viability, T/C [33]: 49.5% | viability, T/C [12]: 33.9% | viability, T/C [34]: 30.5% | viability, T/C [35]: 30.3% | viability, T/C [36]: 18.5%
